From US10696707B2, “Polyene macrolide derivative” (Shionogi & Co., Ltd., priority 2014, dated 2020)
≈ marks a conversion by molar mass, not a printed value. Where two headings read alike, the source gives them in different places.

What was measured:
[1] = test system: Kim1, Timp1, and Lcn2; test: Test Example 4: nephrotoxicity, kidney marker gene expression by quantitative RT-PCR after intravenous administration; type: in vivo; conditions: mice, nephrotoxicity positive when ΔΔCt of two-third of target genes (Kim1, Timp1, Lcn2) >3
Protocol: (§1) The expression level of marker genes for nephrotoxicity was determined by quantitative RT-PCR to evaluate nephrotoxicity of the compound of the present invention. The compound of the present invention or vehicle was intravenously administered to mice and their kidneys were isolated. After removal of the kidney capsule, all of the kidneys were sliced into two equal halves, and stored at −80° C. in RNAlater® (Ambion) until use. Samples were disrupted and homogenized in QIAzol Lysis Reagent with TissueLyser (Qiagen), and total RNA was extracted using an RNeasy® Mini kit (Qiagen). Total RNA concentrations were determined to read OD260 by absorptiometer.
(§2) The level of expression of the following target genes was determined using one-step quantitative real-time PCR: Kim1, Timp1, and Lcn2. Total RNA (80 ng/2 μL) was used as the template, and TaqMan Gene Expression Assays (Applied Biosystems, for Haver1 (Kim1), assay ID: Mm00506686_m1; Timp1, Mm01341361_m1; Lcn2, Mm01324470_m1) or TaqMan Endogenous Controls (Gapdh, predesigned assay reagent supplied by ABI, Applied Biosystems) were employed as gene-specific probe and primer sets. Quantitative RT-PCR was performed using a QuantiTect™ Probe RT-PCR kit (Qiagen), and transcript levels were quantitated with an Applied Biosystems 7900HT Fast Real Time PCR System (Applied Biosystems). Reverse transcription and amplification conditions were set as follows: 50° C. for 30 min, 95° C. for 15 min, followed by 40 cycles at 95° C. for 15 s and 60° C. for 1 min. The resulting cycle threshold (Ct) value was processed based on the comparative Ct method (ΔΔCt Method), where Gapdh was used as an endogenous reference gene to normalize the expression level of target genes.
(§3) The ΔCt was calculated as follows: Ct, Gapdh−Ct, target gene.
(§4) The ΔΔCt was calculated as follows: ΔCt, treated sample−ΔCt, average of vehicle control sample.
(§5) Higher ΔΔCt values indicate higher expression rates of the target gene and therefore high risk for nephrotoxicity.

[2] = test system: red blood cells (5% RBC suspension); test: Test Example 2-2: in vitro hemolytic activity test (upper limit 200 μmol/L); type: cell-based; conditions: Erythrocyte, read-out: hemolysis IC50
Method in brief: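 Washed defibrinated blood cells suspended at 5% in phenol-red-free Earle's medium, exposed to DMSO-dissolved compounds (top final 200 μmol/L, doubling dilutions) for 1 h at 37° C, 5% CO2. Supernatant A540 read; % hemolysis relative to water-lysed blood and DMSO control, IC50 derived, upper limit 200 μmol/L.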

[3] = test system: HepG2 cells; type: cell-based; conditions: human, 71 h
Protocol: The Cytotoxicith of the compounds of the present invention was evaluated by measuting cell numbers automatically using the cell image analyzer, Toxinsight® (Thermofisher Scientific).
HepG2 cells were seeded in 384-well black plates (100000 cells/mL) and allowed to attach for approximately 24 hours at 37° C. in humidified CO2 incubator. Test compounds and positive control (Fungizone®) were initially dissolved as concentrated 20 mmol/L stock solutions in DMSO and added to culture medium, to the final concentration; 1.6, 3.1, 6.3, 12.5, 25, 50, 100 μmol/L. The negative control well was treated with DMSO alone. After exposure of each test compound for approximately 71 hours, each well were added with Hoechst 33342, for staining of nuclei, diluted in D-PBS to the final concentration; 1 μg/mL, and after that, fixed with 4% paraformaldehyde. The cell number, stained with Hoechst 33342, was counted by Toxinsight® (Thermofisher Scientific) in each well. The mean value of cell number and the standard deviation (SD) was calculated (N=4).

[4] = Test Example 4: nephrotoxicity, kidney marker gene expression by quantitative RT-PCR after intravenous administration; type: in vivo; conditions: mouse, kidney, mice, nephrotoxicity positive when ΔΔCt of two-third of target genes (Kim1, Timp1, Lcn2) >3
Protocol: as §1, §2, §3, §4, §5

[5] = test system: C. albicans ATCC90028; test: Antifungal activity test, MIC by broth microdilution (CLSI M27-A3); type: cell-based; conditions: Candida albicans
Method in brief: (§6)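 CLSI broth microdilution in RPMI 1640 with 2% glucose, 0.165 mol/L MOPS, pH 7.0; two-fold DMSO dilutions. MIC = lowest concentration giving 100% inhibition versus growth control.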

[6] = test system: A. flavus ATCC204304; test: Antifungal activity test, MIC by broth microdilution (CLSI M38-A2); type: cell-based; conditions: Aspergillus flavus
Method in brief: as §6

[7] = test system: A. fumigatus ATCC204305; test: as above; type: cell-based; conditions: Aspergillus fumigatus
Method in brief: as §6

[8] = test system: red blood cells (5% RBC suspension); test: Test Example 2-1: in vitro hemolytic activity test (upper limit 50, 80, 100 or 200 μmol/L); type: cell-based; conditions: read-out: hemolysis IC50
Method in brief: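 A 5% suspension of washed red cells in Earle's medium was exposed to doubling dilutions of compound from DMSO, with maxima of 50, 80, 100 or 200 μmol/L final, for 1 h at 37 °C, 5% CO2. Supernatant absorbance at 540 nm was normalised to water-lysed cells. IC50 is the concentration giving 50% hemolysis; ">" values exceed the top concentration.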

[9] = comparative example, hemolysis method 200 (upper limit 200 μmol/L), 37° C., an hour
[10] = C. albicans ATCC90028, broth microdilution, 35° C., 24-48 hours, 100% inhibition, read-out: MIC
[11] = A. flavus ATCC204304, broth microdilution, 35° C., 24-48 hours, 100% inhibition, read-out: MIC
[12] = A. fumigatus ATCC204305, broth microdilution, 35° C., 24-48 hours, 100% inhibition, read-out: MIC

Question: Which “nephrotoxicity MTD” value [1] does the source give for `C[C@@H]1[C@H](O)[C@@H](C)/C=C/C=C/C=C/C=C/C=C/C=C/C=C/[C@H](O[C@@H]2O[C@H](C)[C@@H](O)[C@H](N)[C@@H]2O)C[C@@H]2O[C@](O)(C[C@@H](O)C[C@@H](O)[C@H](O)CC[C@@H](O)C[C@@H](O)CC(=O)O[C@H]1C)C[C@H](O)[C@H]2NC(=O)N/N=C/[C@H](O)CO` [I-235] here?
Answer: >24 mg/kg

Question: What does the source list for `C[C@@H]1[C@H](O)[C@@H](C)/C=C/C=C/C=C/C=C/C=C/C=C/C=C/[C@H](O[C@@H]2O[C@H](C)[C@@H](O)[C@H](N)[C@@H]2O)C[C@@H]2O[C@](O)(C[C@@H](O)C[C@@H](O)[C@H](O)CC[C@@H](O)C[C@@H](O)CC(=O)O[C@H]1C)C[C@H](O)[C@H]2C(=O)O` [AmB, Amphotericin B, reference compound]?
Answer: IC50 [2, 9]: 1.6 µM; cytotoxicity (lowest cytotoxicity concentration) [3]: <1.6 µmol/L; MTD [4]: 1 mg/kg

Question: For `C[C@@H]1[C@H](O)[C@@H](C)/C=C/C=C/C=C/C=C/C=C/C=C/C=C/[C@H](O[C@@H]2O[C@H](C)[C@@H](O)[C@H](N)[C@@H]2O)C[C@@H]2O[C@](O)(C[C@@H](O)C[C@@H](O)[C@H](O)CC[C@@H](O)C[C@@H](O)CC(=O)O[C@H]1C)C[C@H](O)[C@H]2NC(=O)NCCN` [AmBAU, reference compound], which MIC ([5]; ATCC90028) is on record?
Answer: 0.5 µg/mL (≈ 0.51 µM)

Question: What about the MIC ([6]; ATCC204304) of the same compound?
Answer: 1 µg/mL (≈ 1.02 µM)

Question: What about the MIC ([7]; ATCC204305) of the same compound?
Answer: 1 µg/mL (≈ 1.02 µM)

Question: What about the IC50 [2] of the same compound?
Answer: 58 µM

Question: And the “cytotoxicity (lowest cytotoxicity concentration)” value [3]?
Answer: 51.0 µmol/L

Question: What about the MTD [4] of the same compound?
Answer: 12 mg/kg

Question: With `C[C@@H]1[C@H](O)[C@@H](C)/C=C/C=C/C=C/C=C/C=C/C=C/C=C/[C@H](O[C@@H]2O[C@H](C)[C@@H](O)[C@H](NC(=N)N)[C@@H]2O)C[C@@H]2O[C@](O)(C[C@@H](O)C[C@@H](O)[C@H](O)CC[C@@H](O)C[C@@H](O)CC(=O)O[C@H]1C)C[C@H](O)[C@H]2CO` [I-394] as the compound, how does the MTD [4] read?
Answer: > 24 mg/kg

Question: Which results are given for `C[C@@H]1[C@H](O)[C@@H](C)/C=C/C=C/C=C/C=C/C=C/C=C/C=C/[C@H](O[C@@H]2O[C@H](C)[C@@H](O)[C@H](N)[C@@H]2O)C[C@@H]2O[C@](O)(C[C@@H](O)C[C@@H](O)[C@H](O)CC[C@@H](O)C[C@@H](O)CC(=O)O[C@H]1C)C[C@H](O)[C@H]2NC(=O)NC1(C#N)CC1` [I-105]?
Answer: IC50 ([8]; hemolysis method 200 (upper concentration 200 μmol/L), 5% RBC suspension, 37° C., one hour): > 200 µM; nephrotoxicity MTD [1]: >24 mg/kg

Question: Which MTD [4] does the source give for `C[C@@H]1[C@H](O)[C@@H](C)/C=C/C=C/C=C/C=C/C=C/C=C/C=C/[C@H](O[C@@H]2O[C@H](C)[C@@H](O)[C@H](N)[C@@H]2O)C[C@@H]2O[C@](O)(C[C@@H](O)C[C@@H](O)[C@H](O)CC[C@@H](O)C[C@@H](O)CC(=O)O[C@H]1C)C[C@H](O)[C@H]2NC(=O)NO` [I-219] here?
Answer: 16 mg/kg

Question: Which results are given for `CNC(=O)N[C@H]1[C@@H]2C[C@@H](O[C@@H]3O[C@H](C)[C@@H](O)[C@H](N)[C@@H]3O)/C=C/C=C/C=C/C=C/C=C/C=C/C=C/[C@H](C)[C@@H](O)[C@@H](C)[C@H](C)OC(=O)C[C@H](O)C[C@H](O)CC[C@@H](O)[C@H](O)C[C@H](O)C[C@](O)(C[C@@H]1O)O2` [AmBMU, reference compound]?
Answer: MIC [5, 10]: 0.5 µg/mL (≈ 0.525 µM); MIC [6, 11]: 1 µg/mL (≈ 1.05 µM); MIC [7, 12]: 1 µg/mL (≈ 1.05 µM); IC50 [2, 9]: 130 µM; cytotoxicity (lowest cytotoxicity concentration) [3]: 12.5 µmol/L; MTD [4]: 12 mg/kg

Question: Which results are given for `C[C@@H]1[C@H](O)[C@@H](C)/C=C/C=C/C=C/C=C/C=C/C=C/C=C/[C@H](O[C@@H]2O[C@H](C)[C@@H](O)[C@H](N)[C@@H]2O)C[C@@H]2O[C@](O)(C[C@@H](O)C[C@@H](O)[C@H](O)CC[C@@H](O)C[C@@H](O)CC(=O)O[C@H]1C)C[C@H](O)[C@H]2NC(=O)NCCC(=O)O` [AmBCU, reference compound]?
Answer: MIC [5, 10]: 0.5 µg/mL (≈ 0.495 µM); MIC [6, 11]: 1 µg/mL (≈ 0.99 µM); MIC [7, 12]: 1 µg/mL (≈ 0.99 µM); cytotoxicity (lowest cytotoxicity concentration) [3]: 25.2 µmol/L; MTD [4]: 3 mg/kg

Question: Which results are given for `C[C@@H]1[C@H](O)[C@@H](C)/C=C/C=C/C=C/C=C/C=C/C=C/C=C/[C@H](O[C@@H]2O[C@H](C)[C@@H](O)[C@H](N)[C@@H]2O)C[C@@H]2O[C@](O)(C[C@@H](O)C[C@@H](O)[C@H](O)CC[C@@H](O)C[C@@H](O)CC(=O)O[C@H]1C)C[C@H](O)[C@H]2C(=O)NC(CO[C@H]1O[C@H](CO)[C@@H](O)[C@H](O)[C@@H]1O)CO[C@H]1O[C@H](CO)[C@@H](O)[C@H](O)[C@@H]1O` [I-396]?
Answer: IC50 ([8]; Erythrocyte, 1 h): > 100 µM; MTD [4]: 16 mg/kg

Question: What does the source list for `C[C@@H]1[C@H](O)[C@@H](C)/C=C/C=C/C=C/C=C/C=C/C=C/C=C/[C@H](O[C@@H]2O[C@H](C)[C@@H](O)[C@H](N)[C@@H]2O)C[C@@H]2O[C@](O)(C[C@@H](O)C[C@@H](O)[C@H](O)CC[C@@H](O)C[C@@H](O)CC(=O)O[C@H]1C)C[C@H](O)[C@H]2NC(=O)NNC(N)=O` [I-60]?
Answer: MIC ([5]; ATCC90028): 0.125 µg/mL (≈ 0.125 µM); MIC ([6]; ATCC204304): 0.5 µg/mL (≈ 0.502 µM); MIC ([7]; ATCC204305): 0.5 µg/mL (≈ 0.502 µM); IC50 ([2]; 1 h): > 200 µM
